Results: patent publication US7863033B2, “Lactobacillus living body activating Lactobacillus preparation and preventive or therapeutic agent for living body infection” (BHPH Company Limited, priority 2003, dated 2011)
Where two headings read alike, the source gives them in different places.

Columns and labels:
mouse skin wound = test: Recovery of mouse skin wounds with bactericidal disinfectants (Test Example 5); format: in vivo
bacteria in plaque = test: Live cell counts in plaque soaked in disinfectant (Test Example 4); format: cell-based; settings: 60 minutes of immersion
acute colitis patients = test: Treatment of acute infection patients (Example 15, Comparative Example 1); settings: method A: Cefaclor alone 1000 mg/day for 5 days
[1] = tested on: acute bronchitis patients; settings: method A: Cefaclor alone; cited from earlier work
acute cystitis patients [2] = settings: method A: Cephalexin alone; cited from earlier work
conjunctivitis patients = test: Treatment of acute infection patients (Example 15, Comparative Example 1); settings: epidemic conjunctivitis; method A: Ofloxacin alone
acute cystitis patients [3] = test: as above; settings: method A: minocycline alone 1000 mg/day for 5 days
[4] = applied every morning and night

SMILES: CC(O)C(=O)O.CCOc1ccc2nc3cc(N)ccc3c(N)c2c1 [Acrinol]
- Recovery: Complete recovery (coat regrown) (mouse skin wound; [4]): 40 days
- Recovery: Skin close to original thickness (mouse skin wound; [4]): 15 days
- Recovery: Thin skin overall (mouse skin wound; applied every morning and night to about 1 cm^2 peeled mouse skin): 5 days
- survival of bacteria inside the plaque (bacteria in plaque): half of the cells surviving

SMILES: N[C@@H](C(=O)N[C@@H]1C(=O)N2C(C(=O)O)=C(Cl)CS[C@H]12)c1ccccc1 [Cefaclor]
- Upset of intestinal flora (acute colitis patients): ++
- Upset of intestinal flora [1]: ++

SMILES: CC1=C(C(=O)O)N2C(=O)[C@@H](NC(=O)[C@H](N)c3ccccc3)[C@H]2SC1 [Cephalexin]
- Upset of intestinal flora (acute cystitis patients [2]): ++

SMILES: CC1COc2c(N3CCN(C)CC3)c(F)cc3c(=O)c(C(=O)O)cn1c23 (stereo not drawn) [Ofloxacin]
- Upset of intestinal flora (conjunctivitis patients): −

SMILES: CN(C)c1ccc(O)c2c1C[C@H]1C[C@H]3[C@H](N(C)C)C(O)=C(C(N)=O)C(=O)[C@@]3(O)C(O)=C1C2=O [minocycline]
- Upset of intestinal flora (acute cystitis patients [3]): ++
